Data on nine compounds can be found in publication PMC5706069 (2017).

Data set [1] deals with acute thermal nociception. Description: Hot-plate assay in mice after sc administration. Type of data set: in vivo. To be noted: Mus musculus, 0.5 h, read-out: antinociceptive activity hot-plate assay ED50 (95% CI). For orientation: Thermal pain tests record how soon the animal reacts.
Data set [2] concerns the target T1, human MOR (Homo sapiens, UniProt P35372). Description: Competition binding assay, [3H]DAMGO, CHO-hMOR cell membranes. To be noted: for Ki: read-out: opioid receptor binding, Ki, affinity MOR, CHO-hMOR membranes, [3H]DAMGO, mean ± SEM, at least three experiments.
For the next data set, the target named is human DOR (Homo sapiens, UniProt P41143). Description: Competition binding assay, [3H]diprenorphine, CHO-hDOR cell membranes. The conditions noted are these: for selectivity DOR/MOR: ratio of Ki values; for Ki: read-out: opioid receptor binding, Ki, affinity DOR, CHO-hDOR membranes, [3H]diprenorphine, mean ± SEM, at least three experiments.
Another data set addresses human KOR (Homo sapiens, UniProt P41145). The experiment in a line: Competition binding assay, [3H]HS665, CHO-hKOR cell membranes. To be noted: for selectivity KOR/MOR: ratio of Ki values; for Ki: read-out: opioid receptor binding, Ki, affinity KOR, CHO-hKOR membranes, [3H]HS665, mean ± SEM, at least three experiments.
Data set [3] has as its target T1, human MOR. Description: [35S]GTPγS binding assay using CHO-hMOR cell membranes. Type of data set: biochemical. To be noted: for Emax: read-out: functional activity [35S]GTPγS MOR % stim; for EC50: read-out: functional activity [35S]GTPγS MOR EC50, mean ± SEM.
For another data set, the system named is MOR. To be noted: 14-methoxy group introduced into 1; ref 6a, 6b; cited from earlier work.
A further data set relates to antinociception. To be noted: cited from earlier work.
The test system of data set [4] is gastrointestinal motility. The conditions noted are these: ref 6b; cited from earlier work.

Usually ED50 stands for the dose that gives a 50% effect, or the effect in half of the subjects. The Ki is the dissociation constant of the complex between target and ligand, obtained from inhibition or displacement. For orientation: EC50 means the concentration giving half of the maximal effect.

With `CN1CC[C@]23c4c5ccc(O)c4O[C@H]2C(=O)CC[C@@]3(O)[C@H]1C5` [Compound 1, oxymorphone, reference compound], the ED50 in data set [1] worked out at 0.382 mg/kg.

For `CN1CC[C@]23c4c5ccc(O)c4O[C@H]2CCC[C@@]3(O)[C@H]1C5` [Compound 1a, 3,14-Dihydroxy-4,5α-epoxy-17-methylmorphinan], the inhibition constant (Ki) at human MOR [2] is 1.65 ± 0.5 nM. For the same compound, the “decrease in affinity to the DOR, 1a vs 1” value at human DOR (human DOR, Ki ratio) is roughly 3 fold. Further, at human DOR, the “selectivity DOR/MOR” value was 122 and the Ki is 201 ± 80 nM. Moreover, on human KOR, the “selectivity KOR/MOR” value is on record as 13 and the Ki came out at 21.6 ± 3.9 nM. For the same compound, the Emax on human MOR [3] was determined as 104 ± 7%. In addition, at human MOR [3] (CHO-hMOR membranes), the EC50 stood at 8.99 ± 2.19 nM. The ED50 in data set [1] is 0.383 mg/kg.

`CO[C@@]12CCC(=O)[C@@H]3Oc4c(O)ccc5c4[C@@]31CCN(C)[C@@H]2C5` [Compound 2, 14-O-methyloxymorphone]: the Ki on human MOR [2] stood at 0.32 ± 0.08 nM. Further, on human DOR, the “selectivity DOR/MOR” value was 28 and the Ki turned out to be 8.8 ± 0.35 nM. Moreover, on human KOR, the “selectivity KOR/MOR” value was found to be 32 and the Ki was found to be 10.1 ± 3.1 nM. In addition, the Emax on human MOR [3] worked out at 96.4 ± 5%. The EC50 on human MOR [3] (CHO-hMOR membranes) amounted to 1.45 ± 0.32 nM. Further, the ED50 in data set [1] turned out to be 0.0142 mg/kg. For the same compound, the “increase in MOR affinity vs oxymorphone (1)” value with MOR is roughly 9 fold. Also, the “increase in antinociceptive potency vs oxymorphone (1)” value in the data set with antinociception (ref 6a, 6b) was 40 fold.

As to `CO[C@@]12CCC[C@@H]3Oc4c(O)ccc5c4[C@@]31CCN(C)[C@@H]2C5` [Compound 2a, 4,5α-Epoxy-3-hydroxy-14β-methoxy-17-methylmorphinan], the Ki at human MOR [2] was found to be 0.24 ± 0.08 nM. Besides, at human DOR, the “selectivity DOR/MOR” value is 36 and the Ki is 8.64 ± 2.25 nM. Besides, at human KOR, the “selectivity KOR/MOR” value came to 17 and the Ki turned out to be 3.99 ± 0.63 nM. For the same compound, at human MOR [3], the Emax is 105 ± 6%. At human MOR [3] (CHO-hMOR membranes), the EC50 was determined as 1.37 ± 0.26 nM. For the same compound, the ED50 in data set [1] was 0.0173 mg/kg.

As to `CN1CC[C@]23c4c5ccc(O)c4O[C@H]2C(=O)CC[C@@]3(OCc2ccccc2)[C@H]1C5` [Compound 3, 14-O-benzyloxymorphone], the Ki at human MOR [2] stood at 0.45 ± 0.1 nM. For the same compound, on human DOR, the “selectivity DOR/MOR” value worked out at 2.3 and the Ki is 1.05 ± 0.42 nM. For the same compound, at human KOR, the “selectivity KOR/MOR” value worked out at 2.8 and the Ki worked out at 1.27 ± 0.24 nM. Moreover, at human MOR [3], the Emax amounted to 101 ± 5%. On human MOR [3] (CHO-hMOR membranes), the EC50 is 0.32 ± 0.16 nM. Further, the ED50 in data set [1] turned out to be 0.00238 mg/kg. Also, in the data set on antinociception (ref 6b), the “increased antinociceptive potency compared to 2” value was 5 fold. Besides, in data set [4], the “inhibition of gastrointestinal motility” value is listed as “negligible”, the “less constipating than 2” value is given as 7 fold and the “less constipating than morphine” value is 2.5 fold.

For the compound `CN1CC[C@]23c4c5ccc(O)c4O[C@H]2CCC[C@@]3(OCc2ccccc2)[C@H]1C5` [Compound 3a, 14β-Benzyloxy-4,5α-epoxy-3-hydroxy-17-methylmorphinan], the “increase in MOR affinity, 3a vs 3” value on human MOR [2] (human MOR, Ki ratio) was “up to 9 fold”. Besides, the values for the Ki on human MOR [2], at human DOR and at human KOR were 0.048 ± 0.011 nM, 0.89 ± 0.29 nM and 0.85 ± 0.05 nM, respectively. The “higher MOR/DOR selectivity ratio than 3” value on human DOR (3a vs 3) was “about 9 fold”. For the same compound, the “higher MOR/KOR selectivity ratio than 3” value at human KOR (3a vs 3) is roughly 6 fold. Further, the “selectivity KOR/MOR” value on human KOR worked out at 18. Also, at human MOR [3] ([35S]GTPγS, human MOR), the “increase in the EC50 of 3a compared to 3” value is listed as roughly 2.5 fold. Also, the Emax at human MOR [3] is 103 ± 8%. In addition, the EC50 at human MOR [3] (CHO-hMOR membranes) was 0.13 ± 0.03 nM. Besides, the ED50 in data set [1] turned out to be 0.00241 mg/kg.

Regarding `CO[C@@]12CCC(=O)[C@]3(C)Oc4c(O)ccc5c4[C@@]31CCN(C)[C@@H]2C5` [Compound 4, 14-methoxymetopon], on human DOR, the “selectivity DOR/MOR” value is reported as 79 and the Ki came to 19.8 ± 1.3 nM. For the same compound, on human KOR, the “selectivity KOR/MOR” value was 60 and the inhibitory constant (Ki) is 15.1 ± 0.9 nM. For the same compound, on human MOR [3], the Emax was determined as 99.2 ± 2.8%. Besides, the EC50 at human MOR [3] (CHO-hMOR membranes) was determined as 3.28 ± 0.81 nM. Moreover, in data set [1], the ED50 was 0.0271 mg/kg.

With `CO[C@@]12CCC[C@]3(C)Oc4c(O)ccc5c4[C@@]31CCN(C)[C@@H]2C5` [Compound 4a, 5β,17-Dimethyl-4,5α-epoxy-3-hydroxy-14β-methoxymorphinan], the Ki at human MOR [2] is 0.34 ± 0.08 nM; at human DOR, 12.9 ± 1.6 nM; on human KOR it was 7.92 ± 4.47 nM. Further, the EC50 at human MOR [3] (CHO-hMOR membranes) worked out at 2.95 ± 0.54 nM. For the same compound, in data set [1], the ED50 was 0.0251 mg/kg.

For the compound `C[C@@H](NC(=O)[C@@H](N)Cc1ccc(O)cc1)C(=O)NCC(=O)N(C)[C@@H](Cc1ccccc1)C(=O)NCCO` [DAMGO, [D-Ala^2,Me-Phe^4,Gly-ol^5]enkephalin, reference compound], the “% stim of the reference full agonist DAMGO in [35S]GTPγS binding” value on human MOR [3] (CHO-hMOR membranes, DAMGO's own stimulation, the reference for efficacies) is listed as 221 ± 13%.
